Results taken from patent US20260217763A1, “Novel Peptide and Use Thereof” (Zincure Corp., priority 2022, published 2026).
Blank lines part the entries; values can stand above or below the molecule they belong to. Square brackets hold non-standard residues; d marks the D form. Ends that are not written are not given here. Peptide text beside a SMILES is read from it.

What was measured:
[1] = tested on: H4 cell lines (GL-H4) expressing GFP-linked LC3; test: Analysis of autophagic flow blocked by bafilomycin A-1 (LC3-GFP spots); assay type: cell-based; settings: peptide 20 μM with Baf A1 100 nM, GL-H4 cells; FIGS. 2E and 2F
Description: FIGS. 2A to 2C are series of fluorescence micrographs of LC3-GFP spots 12 h after treating H4 cell line (GL-H4) that stably overexpresses GFP-LC3 protein with various variant alloferon peptides according to one embodiment of the present invention in combination with bafilomycin at a concentration of 20 μM, showing that autophagic flux blocked by bafilomycin A-1 is restored by the variant alloferon peptides according to one embodiment of the present invention. FIGS. 2D to 2F are graphs showing quantification of the fluorescence intensity of LC3-GFP spots 12 h after treatment of the GL-H4 cell line with the variant alloferon peptides according to one embodiment of the present invention in combination with bafilomycin at a concentration of 20 μM.
H4 cell line (GL-H4) and HEK293T cell line permanently transfected with GFP-LC3 plasmid were used in the present invention. The cell culture medium was Minimum Essential Medium (MEM, WellGene) supplemented with 10% fetal bovine serum (Hyclone, USA) and antibiotic and antifungal mixture (WellGene, Korea) and cultured in a cell culture machine at 37° C. and 5% CO2.
To investigate the effect of peptides comprising the amino acid sequences designated as SEQ ID NO: 3 to 16 on autophagic flow, the present inventors treated H4 cell lines (GL-H4) expressing GFP-linked LC3 with the peptides (20 μM) and/or the autophagic inhibitor Bafilomycin A-1 (Baf A1, 100 nM) to inhibit autophagy, and then the effect of the variant alloferon peptides according to one embodiment of the present invention was investigated by fluorescence microscopy analysis.

[2] = In vitro plasma stability assay; assay type: in vitro ADME, ICR mice; settings: 10 μM peptide, 37° C.; for stability in plasma over time: mouse plasma, 0 to 90 min, LC-MS
Description: FIG. 1 is a graph showing the results of measuring quantitative changes of alloferon L-type and alloferon D-type peptides by mass spectrometry to investigate their degradation in plasma from mice, where 10 µM of each alloferon peptide was treated in isolated plasma and were incubated at 37° C. for 0, 10, 30, 60, and 90 min.
As the present inventors believed that the mechanism of action of alloferon peptides is through endocytosis via multi-ligand receptors rather than physiological activity and that zinc-binding capacity is an important mechanism, they investigated the blood stability of the D-type alloferon of Example 1-2 in which all amino acids except glycine have been replaced with D-type amino acids and the L-type alloferon of Example 1-1. An in vitro plasma stability assay was performed to compare the stability of the L-type peptide and the D-type peptide of alloferon in the plasma of mice. For this purpose, 500 to 600 μl of blood was obtained from ICR mice by orbital blood sampling, which was subsequently centrifuged at 2000×g for 20 min at 4° C. using a centrifuge, and the supernatant was collected to obtain plasma. After adding 10 μM of the alloferon L-type and D-type peptides to 100 μl of the plasma, the plasma was incubated at 37° C. for 0, 5, 10, 30, 60, and 90 min. Then, 500 μl of cold methanol was added to precipitate the protein, and the protein was lyophilized and subjected to liquid chromatography and protein mass spectrometry.

[3] = tested on: EGFP-SOD1 G93A aggregates in HEK293T cell line; test: SOD1 protein aggregates after SOD1 overexpression, Western blot; assay type: cell-based; settings: peptide with 100 nM bafilomycin, 18 h, HEK293T; FIG. 3B
Description: (§1) FIG. 3A is a result of Western blot analysis of the level of SOD1 protein expression in protein samples obtained 18 h after treatment of HEK293T cells transfected to express SOD1 with 100 nM bafilomycin A1 alone or in combination with 30 μM of some variant alloferon peptides according to one embodiment of the present invention, for investigating the degradation of SOD1 protein aggregates by treatment with some variant alloferon peptides (DALS1, DAL-VS_V(−Q), DAL1, and DALV2) according to one embodiment of the present invention. FIG. 3B is a graph representing the results of quantifying relative expression of the SOD1 protein. In FIG. 3B, * indicates a significant difference compared to the treatment with bafilomycin alone (* p<0.05).
(§2) The present inventors then investigated whether some of the variant peptides (DALS1, DALVS_V, DAL1, DALV2) comprising the amino acid sequences designated as SEQ ID NO: 3 through 16 could resolve SOD1 aggregates that formed after transient transfection of SOD1 protein into the 293T cell line. To this end, EGFP-SOD1 G93A DNA was transiently transfected into the HEK293T cell line using Lipofectamine 2000. After transfection, the cell lines were incubated in a cell culture machine at 37° C. and 5% CO2 for 30 h, and the culture medium was replaced with Minimum Essential Medium (MEM, Gibco, USA). Subsequently, the cells were pretreated with 100 nM bafilomycin for 30 min, which were then treated with μM variant alloferon peptide and incubated for 18 h. After that, proteinase inhibitors and phosphatase inhibitors (2 μg/ml aprotinin, 2 μg/ml leupeptin, 1 μg/ml pepstatin A, 1 mM phenyl-methylsulfonyl fluoride (PMSF), 1 mM Na3 VO4, 5 mM NaF and 10 mM Na4P2O7) were put into a 6-well culture dish at 200 μl per well to lyse the cells. The obtained cell lysate was first left at 30 min for 4° C. Then, it was subjected to protein quantification using BCA protein assay kit (Pierce Biotechnology, USA), and centrifuged at 17,000×g for 20 min, where the supernant was discarded and only the cell debris was taken to obtain protein. Subsequently, 5× sample buffer (300 mM Tris, pH 6.8, 10% SDS, 50% Glycerol, 0.1% BPB, 2.5% Mercaptoethanol, 100 mM DTT) was mixed with the quantified sample, denatured at 95° C. for 5 min, and prepared for analysis. Then, electrophoresis was performed using 8% to 15% SDS-polyacrylamide gel, and the proteins separated by their sizes were transferred to polyvinylidene difluoride (PVDF) membranes (Millipore, USA). The protein-transferred membranes were then blocked with 3% skim milk powder in TBST for 1 h. […] Protein signals were detected using enhanced chemiluminescence (INTRON Biotechnology, South Korea) and a bio-imaging system (MF-Chemibis, Shimadzu Scientific Korea Corporation, South Korea).

[4] = tested on: EGFP-α-synuclein A53T aggregates in HEK293T cell line; test: α-synuclein protein aggregates after overexpression, Western blot; assay type: cell-based; settings: peptide with 100 nM bafilomycin A1, 18 h, HEK293T; FIG. 5
Description: as §1, with “5” for “3A”, “α-synuclein” for “SOD1”, “µM” for “μM”, “invention.” for “invention. FIG. 3B is a graph representing the results of quantifying relative expression of the SOD1 protein. In FIG. 3B, * indicates a significant difference compared to the treatment with bafilomycin alone (* p<0.05).”
as §2, with “After that, proteinase inhibitors and phosphatase inhibitors (2 μg/ml aprotinin, 2 μg/ml leupeptin, 1 μg/ml pepstatin A, 1 mM phenyl-methylsulfonyl fluoride (PMSF), 1 mM Na3 VO4, 5 mM NaF and 10 mM Na4P2O7) were put into a 6-well culture dish at 200 μl per well to lyse the cells. The obtained cell lysate was first left at 30 min for 4° C.” left out, “analysis.” for “analysis. Then, electrophoresis was performed using 8% to 15% SDS-polyacrylamide gel, and the proteins separated by their sizes were transferred to polyvinylidene difluoride (PVDF) membranes (Millipore, USA). The protein-transferred membranes were then blocked with 3% skim milk powder in TBST for 1 h.”, “Korea). […]” for “Korea).”

[5] = tested on: GFP-mHttQ74 aggregates in HEK293T cell line; test: Mutant huntingtin protein aggregates after overexpression, Western blot; assay type: cell-based; settings: peptide 30 μM with 100 nM bafilomycin A1, 18 h, HEK293T; FIG. 6
Description: FIG. 6 is a result of Western blot analysis of the level of mutant huntingtin protein expression in protein samples obtained 18 h after treatment of HEK293T cells transfected to express mutant huntingtin protein with 100 nM bafilomycin A1 alone or in combination with 30 μM of some variant alloferon peptides according to one embodiment of the present invention, for investigating the degradation of mutant huntingtin protein aggregates by treatment with some variant alloferon peptides (DALS1, DAL-VS_V(−Q), DAL1, and DALV2) according to one embodiment of the present invention.
as §2, with “After that, proteinase inhibitors and phosphatase inhibitors (2 μg/ml aprotinin, 2 μg/ml leupeptin, 1 μg/ml pepstatin A, 1 mM phenyl-methylsulfonyl fluoride (PMSF), 1 mM Na3 VO4, 5 mM NaF and 10 mM Na4P2O7) were put into a 6-well culture dish at 200 μl per well to lyse the cells. The obtained cell lysate was first left at 30 min for 4° C.” left out, “analysis.” for “analysis. Then, electrophoresis was performed using 8% to 15% SDS-polyacrylamide gel, and the proteins separated by their sizes were transferred to polyvinylidene difluoride (PVDF) membranes (Millipore, USA). The protein-transferred membranes were then blocked with 3% skim milk powder in TBST for 1 h.”, “Korea). […]” for “Korea).”

[6] = tested on: P-Tau S214, P-Tau T205, unphosphorylated tau, p62, LC3, β-amyloid (APP); test: Western blot of aggregate-forming proteins in cortex and hippocampus; assay type: in vivo; settings: 5×FAD mice
Excerpt: The present inventors conducted a western blot analysis to investigate the expression of pathogenic aggregate-forming proteins in brain tissue, such as tau protein, p62, and LC3, other than β-amyloid from the results of Experimental examples 8-2 and 8-3 above.
Specifically, cortical and hippocampal tissues were obtained from experimental animals sacrificed after the behavioral experiments, and the tissues were lysed and subjected to Western blot analysis using antibodies that specifically bind to phosphorylated tau S214 (P-Tau S214), phosphorylated tau T205 (P-Tau T205), unphosphorylated tau, p62, LC3, and β-amyloid (APP), respectively.

Molecule: DALVS: variant alloferon peptide, SEQ ID NO: 3, hGVSGhGqhGvhG (capital L-type, lowercase D-type) ([dH]GVSG[dH]G[dQ][dH]G[dV][dH]G)
autophagic scavenging activity compared to D-type alloferon peptide (DAL1) [1]: superior autophagic scavenging activity

half-life ([2]; FIG. 1, isolated mouse plasma, read-out: half-life (T1/2)): 51.8 min
stability in plasma over time [2]: degraded early in plasma
Molecule: HGVSGHGQHGVHG [LAL]

Molecule: DALV2: variant alloferon peptide, SEQ ID NO: 4, hGvsGhGqhGVhG (capital L-type, lowercase D-type) ([dH]G[dV][dS]G[dH]G[dQ][dH]GV[dH]G)
autophagic scavenging activity compared to D-type alloferon peptide (DAL1) [1]: superior autophagic scavenging activity
SOD1 protein aggregate dissociating ability compared to DAL1 [3]: better protein aggregate dissociating ability
α-synuclein protein aggregate dissociating ability compared to DAL-1 [4]: better protein aggregate dissociating ability
mutant huntingtin protein aggregate dissociating ability compared to DAL1 [5]: better protein aggregate dissociating ability
amount of β-amyloid ([6]; Western blot of hippocampal sections): significantly reduced
expression of aggregate-forming proteins ([6]; cortex and hippocampus, 20 mg/kg IP, 25 weeks): significantly lower expression
protein aggregate dissociating ability compared to DAL1 ([6]; cortical Western blot analysis): better protein aggregate dissociating ability

Molecule: DALVS_V: variant alloferon peptide with glutamine removed, SEQ ID NO: 14, hGVSGhGhGVhG (capital L-type, lowercase D-type) ([dH]GVSG[dH]G[dH]GV[dH]G)
autophagic scavenging activity compared to D-type alloferon peptide (DAL1) [1]: superior autophagic scavenging activity
SOD1 protein aggregate dissociating ability compared to DAL1 [3]: better protein aggregate dissociating ability

Molecule: DALH1: variant alloferon peptide, SEQ ID NO: 8, HGvsGhGqhGvhG (capital L-type, lowercase D-type) (HG[dV][dS]G[dH]G[dQ][dH]G[dV][dH]G)
mutant huntingtin protein aggregate dissociating ability compared to DAL1 [5]: better protein aggregate dissociating ability

Molecule: DALS1: variant alloferon peptide, SEQ ID NO: 5, hGvSGhGqhGvhG (capital L-type, lowercase D-type) ([dH]G[dV]SG[dH]G[dQ][dH]G[dV][dH]G)
autophagic scavenging activity compared to D-type alloferon peptide (DAL1) [1]: superior autophagic scavenging activity
SOD1 protein aggregate dissociating ability compared to DAL1 [3]: better protein aggregate dissociating ability

Molecule: DALQ1: variant alloferon peptide, SEQ ID NO: 10, hGvsGhGQhGvhG (capital L-type, lowercase D-type) ([dH]G[dV][dS]G[dH]GQ[dH]G[dV][dH]G)
α-synuclein protein aggregate dissociating ability compared to DAL-1 [4]: better protein aggregate dissociating ability

Molecule: DALV1: variant alloferon peptide, SEQ ID NO: 7, hGVsGhGqhGvhG (capital L-type, lowercase D-type) ([dH]GV[dS]G[dH]G[dQ][dH]G[dV][dH]G)
autophagic scavenging activity compared to D-type alloferon peptide (DAL1) [1]: superior autophagic scavenging activity

Molecule: CC(C)[C@@H](NC(=O)CNC(=O)[C@H](N)Cc1c[nH]cn1)C(=O)N[C@H](CO)C(=O)NCC(=O)N[C@H](Cc1c[nH]cn1)C(=O)NCC(=O)N[C@H](CCC(N)=O)C(=O)N[C@H](Cc1c[nH]cn1)C(=O)NCC(=O)N[C@@H](C(=O)N[C@H](Cc1c[nH]cn1)C(=O)NCC(=O)O)C(C)C [DAL1] (H-[dH]G[dV][dS]G[dH]G[dQ][dH]G[dV][dH]G-OH; N-terminus and C-terminus assumed)
stability in plasma over time [2]: remained stable over time without degradation

Molecule: DALVSQV
autophagic scavenging activity compared to D-type alloferon peptide (DAL1) [1]: superior autophagic scavenging activity
